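Protocol summary: plate cells (96-well), add compound at 5 concentrations, incubate 48 h, interpolate endpoints linearly. The concentration for full growth arrest is given as TGI.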
Columns and labels:
Test in all cases: NCI tumour cell line growth inhibition, 48 h
[1] = test system: EKVX NSCLC
[2] = test system: SF-268 CNS
[3] = test system: ACHN renal
[4] = test system: M14 melanoma
[5] = test system: U251 CNS
[6] = test system: CCRF-CEM leukemia
[7] = test system: OVCAR-5 ovarian
[8] = test system: NCI-H226 lung
[9] = test system: HT29 colon
[10] = test system: UACC-62 melanoma
[11] = test system: LOX IMVI melanoma
[12] = test system: KM20L2 colon
[13] = test system: XF 498 CNS
[14] = test system: SF-539 CNS
[15] = test system: SNB-19 CNS
[16] = test system: SNB-78 CNS
[17] = test system: M19-MEL melanoma
[18] = test system: SK-MEL-2 melanoma
[19] = test system: HL-60(TB) leukemia
[20] = test system: MOLT-4 leukemia
[21] = test system: SK-MEL-5 melanoma
[22] = test system: OVCAR-3 ovarian
[23] = test system: LXFL 529 NSCLC
[24] = test system: IGROV1 ovarian
[25] = test system: HCT-116 colon
[26] = test system: HCC-2998 colon
[27] = test system: SF-295 CNS
[28] = test system: UO-31 renal
[29] = test system: MALME-3M melanoma
[30] = test system: RPMI-8226 leukemia
[31] = test system: COLO 205 colon
[32] = test system: UACC-257 melanoma
[33] = test system: CAKI-1 renal
[34] = test system: K-562 leukemia
[35] = test system: HOP-92 NSCLC
[36] = test system: SW-620 colon
[37] = test system: DMS 273 small cell lung
[38] = test system: HCT-15 colon
[39] = test system: KM12 colon
[40] = test system: NCI-H460 lung
[41] = test system: DLD-1 colon
[42] = test system: OVCAR-8 ovarian
[43] = test system: 786-0 renal
[44] = test system: A498 renal
[45] = test system: RXF 393 renal
[46] = test system: SN12C renal
[47] = test system: A549 NSCLC
[48] = test system: OVCAR-4 ovarian
[49] = test system: HOP-62 NSCLC
[50] = test system: SK-OV-3 ovarian
[51] = test system: SNB-75 CNS
[52] = test system: NCI-H522 lung
[53] = test system: MDA-MB-231 breast
[54] = test system: SK-MEL-28 melanoma
[55] = test system: MDA-N
[56] = test system: SR leukemia
[57] = test system: NCI-H23 lung
[58] = test system: MDA-MB-435
[59] = test system: BT-549 breast
[60] = test system: MCF7 breast
[61] = test system: T-47D breast
[62] = test system: NCI/ADR-RES ovarian
[63] = test system: HS 578T breast
[64] = test system: PC-3 prostate
[65] = test system: DU-145 prostate
[66] = test system: TK-10 renal
[67] = test system: HOP-18 NSCLC
[68] = test system: DMS 114 small cell lung

Compound: CCOC1=NC(=O)CC(c2ccccc2)S1 (configuration not stated)
- TGI [1]: > 100 µM
- TGI [2]: > 100 µM
- TGI [3]: > 100 µM
- TGI [4]: > 100 µM
- TGI [5]: > 100 µM
- TGI [6]: > 100 µM
- TGI [7]: > 100 µM
- TGI [8]: > 100 µM
- TGI [9]: > 100 µM
- TGI [10]: > 100 µM
- TGI [11]: > 100 µM
- TGI [12]: > 100 µM
- TGI [13]: > 100 µM
- TGI [14]: > 100 µM
- TGI [15]: > 100 µM
- TGI [16]: > 100 µM
- TGI [17]: > 100 µM
- TGI [18]: > 100 µM
- TGI [19]: > 100 µM
- TGI [20]: > 100 µM
- TGI [21]: > 100 µM
- TGI [22]: > 100 µM
- TGI [23]: > 100 µM
- TGI [24]: > 100 µM
- TGI [25]: > 100 µM
- TGI [26]: > 100 µM
- TGI [27]: > 100 µM
- TGI [28]: > 100 µM
- TGI [29]: > 100 µM
- TGI [30]: > 100 µM
- TGI [31]: > 100 µM
- TGI [32]: > 100 µM
- TGI [33]: > 100 µM
- TGI [34]: > 100 µM
- TGI [35]: > 100 µM
- TGI [36]: > 100 µM
- TGI [37]: > 100 µM
- TGI [38]: > 100 µM
- TGI [39]: > 100 µM
- TGI [40]: > 100 µM
- TGI [41]: > 100 µM
- TGI [42]: > 100 µM
- TGI [43]: > 100 µM
- TGI [44]: > 100 µM
- TGI [45]: > 100 µM
- TGI [46]: > 100 µM
- TGI [47]: > 100 µM
- TGI [48]: > 100 µM

Compound: CCOC(=O)C(Cc1ccc2ccccc2c1)(Cc1ccc2ccccc2c1)C(C)=O
- TGI [3]: > 10 µM
- TGI [4]: > 10 µM
- TGI [5]: > 10 µM
- TGI [6]: > 10 µM
- TGI [10]: > 10 µM
- TGI [11]: > 10 µM
- TGI [12]: > 10 µM
- TGI [13]: > 10 µM
- TGI [16]: > 10 µM
- TGI [17]: > 10 µM
- TGI [20]: 8.61 µM
- TGI [23]: > 10 µM
- TGI [24]: > 10 µM
- TGI [26]: 8.51 µM
- TGI [29]: > 10 µM
- TGI [30]: 6.58 µM
- TGI [31]: > 10 µM
- TGI [34]: > 10 µM
- TGI [35]: > 10 µM
- TGI [36]: > 10 µM
- TGI [37]: > 10 µM
- TGI [38]: > 10 µM
- TGI [40]: > 10 µM
- TGI [41]: > 10 µM
- TGI [49]: > 10 µM
- TGI [43]: > 10 µM
- TGI [50]: > 10 µM
- TGI [46]: > 10 µM
- TGI [47]: > 10 µM
- TGI [48]: > 10 µM

Compound: CC(=O)Nc1ccc(-c2nc3ccccc3s2)cc1Br
- TGI [1]: > 97.1 µM
- TGI [2]: > 100 µM
- TGI [51]: 78 µM
- TGI [3]: > 100 µM
- TGI [4]: > 100 µM
- TGI [5]: > 100 µM
- TGI [6]: > 100 µM
- TGI [8]: > 94.7 µM
- TGI [9]: > 100 µM
- TGI [52]: > 100 µM
- TGI [10]: > 100 µM
- TGI [11]: > 100 µM
- TGI [14]: > 77.3 µM
- TGI [15]: > 93.4 µM
- TGI [18]: > 100 µM
- TGI [19]: > 100 µM
- TGI [20]: > 100 µM
- TGI [21]: > 100 µM
- TGI [22]: > 100 µM
- TGI [24]: 17.4 µM
- TGI [25]: > 100 µM
- TGI [53]: > 89 µM
- TGI [26]: > 100 µM
- TGI [27]: > 100 µM
- TGI [54]: > 100 µM
- TGI [28]: > 100 µM
- TGI [55]: > 100 µM
- TGI [29]: > 100 µM
- TGI [30]: > 100 µM
- TGI [56]: > 100 µM
- TGI [31]: > 100 µM
- TGI [32]: > 100 µM
- TGI [33]: > 88.1 µM
- TGI [34]: > 100 µM
- TGI [35]: > 100 µM
- TGI [57]: > 97.3 µM
- TGI [58]: > 100 µM
- TGI [36]: > 100 µM
- TGI [38]: > 100 µM
- TGI [59]: > 100 µM
- TGI [60]: > 100 µM
- TGI [39]: > 100 µM
- TGI [61]: > 100 µM
- TGI [62]: > 100 µM
- TGI [63]: 69.1 µM
- TGI [64]: > 100 µM
- TGI [40]: > 100 µM
- TGI [42]: > 93.7 µM
- TGI [49]: 56.7 µM
- TGI [43]: > 100 µM
- TGI [65]: > 91.4 µM
- TGI [50]: 75 µM
- TGI [44]: 32.1 µM
- TGI [45]: 66 µM
- TGI [46]: > 100 µM
- TGI [47]: > 100 µM
- TGI [48]: > 100 µM

Compound: CN(C)CC/C(=N\Nc1c(Cl)cccc1Cl)c1ccccc1
- TGI [1]: 94.7 µM
- TGI [66]: 30.9 µM
- TGI [51]: 55.6 µM
- TGI [3]: 50.5 µM
- TGI [4]: 34.2 µM
- TGI [5]: 31.3 µM
- TGI [6]: 79.3 µM
- TGI [67]: 51.1 µM
- TGI [7]: 35.7 µM
- TGI [9]: 29.3 µM
- TGI [52]: 33.9 µM
- TGI [10]: 29.9 µM
- TGI [11]: 31 µM
- TGI [12]: 33.1 µM
- TGI [14]: 34.2 µM
- TGI [15]: > 100 µM
- TGI [16]: 62.1 µM
- TGI [17]: 33.6 µM
- TGI [18]: 34.1 µM
- TGI [19]: 39.4 µM
- TGI [20]: 71.7 µM
- TGI [21]: 29.5 µM
- TGI [22]: 65.9 µM
- TGI [23]: 29.5 µM
- TGI [24]: 92.4 µM
- TGI [25]: 29.1 µM
- TGI [27]: 35.9 µM
- TGI [54]: 39.7 µM
- TGI [28]: 22.5 µM
- TGI [29]: 43.6 µM
- TGI [30]: 46.8 µM
- TGI [56]: 63.4 µM
- TGI [31]: 29.4 µM
- TGI [32]: 32.7 µM
- TGI [34]: 52.3 µM
- TGI [57]: 33.4 µM
- TGI [36]: 36.8 µM
- TGI [37]: 31.8 µM
- TGI [38]: 35.6 µM
- TGI [39]: 34.8 µM
- TGI [40]: 29.9 µM
- TGI [41]: > 100 µM
- TGI [42]: 37.6 µM
- TGI [49]: > 100 µM
- TGI [43]: 31.3 µM
- TGI [50]: 52 µM
- TGI [44]: 34.8 µM
- TGI [68]: 34 µM
- TGI [45]: 28.5 µM
- TGI [46]: 92.7 µM
- TGI [47]: > 100 µM
- TGI [48]: 47.4 µM

From PubChem BioAssay (NCI)
